Test results taken from ChEMBL document CHEMBL5674860, “Optimized Dual-Glo Assay to identify co-culture-induced drug vulnerabilities in 3D CRC models” (2024).
Values joined by “and” are separate entries in the source; they are usually repeats but may differ in a detail not shown here. Equal entries are not always repeated.

How the values were obtained:
Format in all cases: functional, Homo sapiens
Design in all cases: dose or concentration left out as unconfirmed
[1] = tested on: Colon cancer organoid; assay: Optimized Dual-Glo assay to identify co-culture induced drug vulnerabilities using donated chemical probes and chemogenomics kinase set in O20 CRC organoid and F20 CAF mono and co-culture. […] Cell viability is reported both mono and co-culture models.
[2] = tested on: Colon cancer organoid; assay: Optimized Dual-Glo assay to identify co-culture induced drug vulnerabilities using donated chemical probes and chemogenomics kinase set in O14 CRC organoid and F14 CAF mono and co-culture. […] Cell viability is reported both mono and co-culture models.
[3] = tested on: Colon cancer organoid; assay: Optimized Dual-Glo assay to identify co-culture induced drug vulnerabilities using donated chemical probes and chemogenomics kinase set in O06 CRC organoid and F06 CAF mono and co-culture. […] Cell viability is reported both mono and co-culture models.
[4] = Culture type Co-Culture, Transduced with Lucferase2-P2A-EGFP lentivirus
[5] = Culture type Co-Culture, Transduced with Renilla-dsRed lentivirus
[6] = Culture type Mono-Culture, Transduced with Lucferase2-P2A-EGFP lentivirus
[7] = Culture type Mono-Culture, Transduced with Renilla-dsRed lentivirus

COc1cc2c(cc1OCCCN1CCCC1)N=C(N)C21CCC1
Cell Viability [1, 4]: 75.7779% | Cell Viability [1, 5]: 100.254% | Cell Viability [1, 6]: 68.8586% | Cell Viability [1, 7]: 68.8682% | Cell Viability [2, 4]: 71.4641% | Cell Viability [2, 5]: 82.9559% | Cell Viability [2, 6]: 58.4791% | Cell Viability [2, 7]: 57.8128% | Cell Viability [3, 4]: 84.9948% | Cell Viability [3, 5]: 83.704% | Cell Viability [3, 6]: 86.6673% | Cell Viability [3, 7]: 61.562%

Cc1sc2c(c1C)C(c1ccc(Cl)cc1)=N[C@H](CC(=O)OC(C)(C)C)c1nnc(C)n1-2
Cell Viability [1, 4]: 98.7176% | Cell Viability [1, 5]: 113.657% | Cell Viability [1, 6]: 118.396% | Cell Viability [1, 7]: 90.6965% | Cell Viability [2, 4]: 111.301% | Cell Viability [2, 5]: 136.501% | Cell Viability [2, 6]: 108.464% | Cell Viability [2, 7]: 107.072% | Cell Viability [3, 4]: 107.283% | Cell Viability [3, 5]: 109.974% | Cell Viability [3, 6]: 69.4816% | Cell Viability [3, 7]: 97.8447%

CCCc1cc(C)[nH]c(=O)c1CNC(=O)c1cc(-c2ccc(N3CCN(C(C)C)CC3)nc2)cc2c1cnn2C(C)C
Cell Viability [1, 4]: 58.7881% | Cell Viability [1, 5]: 157.842% | Cell Viability [1, 6]: 61.2858% | Cell Viability [1, 7]: 75.3301% | Cell Viability [2, 4]: 66.7096% | Cell Viability [2, 5]: 94.8471% | Cell Viability [2, 6]: 83.1931% | Cell Viability [2, 7]: 95.0739% | Cell Viability [3, 4]: 81.1391% | Cell Viability [3, 5]: 118.175% | Cell Viability [3, 6]: 116.95% | Cell Viability [3, 7]: 88.1686%

COc1ccc(CCc2nc3cc(-c4c(C)noc4C)ccc3n2C[C@H](C)N2CCOCC2)cc1Cl
Cell Viability [1, 4]: 95.7417% | Cell Viability [1, 5]: 133.846% | Cell Viability [1, 6]: 83.4803% | Cell Viability [1, 7]: 106.755% | Cell Viability [2, 4]: 90.4848% | Cell Viability [2, 5]: 144.282% | Cell Viability [2, 6]: 124.855% | Cell Viability [2, 7]: 138.359% | Cell Viability [3, 4]: 78.634% | Cell Viability [3, 5]: 97.126% | Cell Viability [3, 6]: 66.152% | Cell Viability [3, 7]: 156.889%

COc1cc(C#N)ccc1S(=O)(=O)Nc1ccc2c(c1)cc(C)c(=O)n2C
Cell Viability [1, 4]: 96.6614% | Cell Viability [1, 5]: 124.149% | Cell Viability [1, 6]: 82.6901% | Cell Viability [1, 7]: 95.7551% | Cell Viability [2, 4]: 68.1001% | Cell Viability [2, 5]: 108.689% | Cell Viability [2, 6]: 83.6696% | Cell Viability [2, 7]: 112.833% | Cell Viability [3, 4]: 94.9001% | Cell Viability [3, 5]: 111.598% | Cell Viability [3, 6]: 60.6858% | Cell Viability [3, 7]: 105.903%

O=C(/C=C/N1C[C@H]2C[C@@H]1CN2c1ccccn1)c1ccccc1O
Cell Viability [1, 4]: 98.7098% | Cell Viability [1, 5]: 109.392% | Cell Viability [1, 6]: 120.989% | Cell Viability [1, 7]: 80.1119% | Cell Viability [2, 4]: 76.8483% | Cell Viability [2, 5]: 107.425% | Cell Viability [2, 6]: 87.3467% | Cell Viability [2, 7]: 104.591% | Cell Viability [3, 4]: 122.112% | Cell Viability [3, 5]: 121.159% | Cell Viability [3, 6]: 115.481% | Cell Viability [3, 7]: 98.9347%

CCCS(=O)(=O)c1nc(NC2CC2)cc(-c2ccc3c(ccn3C3CC(C)(C)NC(C)(C)C3)c2)n1
Cell Viability [1, 4]: 90.8821% and 132.572% | Cell Viability [1, 5]: 94.2313% and 119.463% | Cell Viability [1, 6]: 112.848% and 138.911% | Cell Viability [1, 7]: 68.5534% and 89.7285% | Cell Viability [2, 4]: 89.4811% and 97.6343% | Cell Viability [2, 5]: 131.118% and 106.572% | Cell Viability [2, 6]: 78.7545% and 88.3769% | Cell Viability [2, 7]: 100.347% and 100.989% | Cell Viability [3, 4]: 80.022% and 93.4216% | Cell Viability [3, 5]: 88.9327% and 142.491% | Cell Viability [3, 6]: 57.3495% and 53.1993% | Cell Viability [3, 7]: 66.0436% and 80.8259%

CCC(=O)N1CCOc2c(cc(-c3ccc(OC)c(OC)c3)cc2OCC2CCCN(C)C2)C1 (stereo not drawn)
Cell Viability [1, 4]: 85.3108% | Cell Viability [1, 5]: 123.175% | Cell Viability [1, 6]: 108.47% | Cell Viability [1, 7]: 90.76% | Cell Viability [2, 4]: 85.4363% | Cell Viability [2, 5]: 159.816% | Cell Viability [2, 6]: 85.7096% | Cell Viability [2, 7]: 112.054% | Cell Viability [3, 4]: 113.999% | Cell Viability [3, 5]: 135.091% | Cell Viability [3, 6]: 45.0129% | Cell Viability [3, 7]: 100.645%

O=C(NCC(=O)N1CCCC1)Nc1ccc2cnccc2c1
Cell Viability [1, 4]: 120.858% | Cell Viability [1, 5]: 100.064% | Cell Viability [1, 6]: 123.325% | Cell Viability [1, 7]: 84.2387% | Cell Viability [2, 4]: 77.6259% | Cell Viability [2, 5]: 126.417% | Cell Viability [2, 6]: 75.4606% | Cell Viability [2, 7]: 109.537% | Cell Viability [3, 4]: 80.3687% | Cell Viability [3, 5]: 124.064% | Cell Viability [3, 6]: 84.4387% | Cell Viability [3, 7]: 94.1078%

Cl.Cl.c1ccc([C@@H]2C[C@H]2NC2CCNCC2)cc1
Cell Viability [1, 4]: 42.5951% | Cell Viability [1, 5]: 97.3617% | Cell Viability [1, 6]: 75.8314% | Cell Viability [1, 7]: 98.3245% | Cell Viability [2, 4]: 82.3558% | Cell Viability [2, 5]: 127.479% | Cell Viability [2, 6]: 88.7328% | Cell Viability [2, 7]: 113.061% | Cell Viability [3, 4]: 78.4875% | Cell Viability [3, 5]: 97.0217% | Cell Viability [3, 6]: 85.9094% | Cell Viability [3, 7]: 106.355%

CCCCNNC(=O)c1ccc(Br)cc1
Cell Viability [1, 4]: 131.228% | Cell Viability [1, 5]: 114.511% | Cell Viability [1, 6]: 127.902% | Cell Viability [1, 7]: 88.6471% | Cell Viability [2, 4]: 82.2147% | Cell Viability [2, 5]: 109.67% | Cell Viability [2, 6]: 123.977% | Cell Viability [2, 7]: 94.4376% | Cell Viability [3, 4]: 113.204% | Cell Viability [3, 5]: 110.004% | Cell Viability [3, 6]: 101.234% | Cell Viability [3, 7]: 117.719%

COc1cc(Nc2ccnc3ccc(Br)cc23)cc(OC)c1OC
Cell Viability [1, 4]: 3.207% | Cell Viability [1, 5]: 235.19% | Cell Viability [1, 6]: 3.534% | Cell Viability [1, 7]: 97.9085% | Cell Viability [2, 4]: 114.11% | Cell Viability [2, 5]: 94.8334% | Cell Viability [2, 6]: 91.9496% | Cell Viability [2, 7]: 94.0266% | Cell Viability [3, 4]: 12.1878% | Cell Viability [3, 5]: 144.697% | Cell Viability [3, 6]: 4.043% | Cell Viability [3, 7]: 101.861%

O=C(NC[C@H](O)CN1CCc2ccccc2C1)c1ccnc(NC2CCC2)c1
Cell Viability [1, 4]: 42.8317% | Cell Viability [1, 5]: 143.569% | Cell Viability [1, 6]: 53.6752% | Cell Viability [1, 7]: 63.4646% | Cell Viability [2, 4]: 29.3409% | Cell Viability [2, 5]: 134.373% | Cell Viability [2, 6]: 40.919% | Cell Viability [2, 7]: 88.6314% | Cell Viability [3, 4]: 33.1368% | Cell Viability [3, 5]: 110.399% | Cell Viability [3, 6]: 67.3977% | Cell Viability [3, 7]: 84.1228%

Cl.O=C([C@@H](Cc1cccc(C(F)(F)F)c1)NS(=O)(=O)c1cc(F)c2c(c1)CCNC2)N1CCCC1
Cell Viability [1, 4]: 152.168% | Cell Viability [1, 5]: 150.248% | Cell Viability [1, 6]: 145.099% | Cell Viability [1, 7]: 80.4285% | Cell Viability [2, 4]: 99.1964% | Cell Viability [2, 5]: 106.618% | Cell Viability [2, 6]: 90.5758% | Cell Viability [2, 7]: 109.686% | Cell Viability [3, 4]: 84.043% | Cell Viability [3, 5]: 115.078% | Cell Viability [3, 6]: 78.4722% | Cell Viability [3, 7]: 93.27%
